Results published in the supplement of paper PMC6045584.
± gives the standard deviation of the averaged measurements.

Experiments:
CELECOXIB = compound: Cc1ccc(-c2cc(C(F)(F)F)nn2-c2ccc(S(N)(=O)=O)cc2)cc1 [CELECOXIB]; experiment: surviving fraction relative to DMSO-only wells; higher = less growth inhibition; conditions: exposure time: 5 days
Outline: (§1)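 Tumour cell lines were seeded in log phase at 250–500 cells per well into 384-well plates. Starting 24 hours later, inhibitors were present continuously for five days at 0.5, 1, 5, 10, 50, 100, 500 and 1000 nM. Surviving fraction, from CellTiter-Glo luminescence, is normalised to the median of DMSO-only wells. Three screens per line were required, with replicate Pearson r >0.7 and median Z' >0.3 for a line to be kept.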

CARBOPLATIN = compound: O=C(O)C1(C(=O)O)CCC1.[NH2-].[NH2-].[Pt+2] [CARBOPLATIN]; experiment: as above; conditions: exposure time: 5 days
Outline: as §1

| Test System | surviving fraction (CELECOXIB; 0.5 nM) | surviving fraction (CELECOXIB; 1 nM) | surviving fraction (CELECOXIB; 5 nM) | surviving fraction (CELECOXIB; 10 nM) | surviving fraction (CELECOXIB; 50 nM) | surviving fraction (CELECOXIB; 100 nM) | surviving fraction (CELECOXIB; 500 nM) | surviving fraction (CELECOXIB; 1000 nM) | surviving fraction (CARBOPLATIN; 0.5 nM) | surviving fraction (CARBOPLATIN; 1 nM) | surviving fraction (CARBOPLATIN; 5 nM) | surviving fraction (CARBOPLATIN; 10 nM) | surviving fraction (CARBOPLATIN; 50 nM) | surviving fraction (CARBOPLATIN; 100 nM) | surviving fraction (CARBOPLATIN; 500 nM) | surviving fraction (CARBOPLATIN; 1000 nM) |
| --- | --- | --- | --- | --- | --- | --- | --- | --- | --- | --- | --- | --- | --- | --- | --- | --- |
| HCC78 LUNG | 0.815 ± 0.2 | 0.894 ± 0.038 | 0.89 ± 0.28 | 1.05 ± 0.18 | 0.886 ± 0.14 | 1.05 ± 0.082 | 0.973 ± 0.09 | 0.801 ± 0.028 | 1.04 ± 0.061 | 0.884 ± 0.23 | 1.2 ± 0.18 | 0.951 ± 0.25 | 1 ± 0.22 | 1.12 ± 0.2 | 0.973 ± 0.037 | 0.954 ± 0.18 |
| HCC202 BREAST | 1.15 ± 0.041 | 1.14 ± 0.04 | 1.2 ± 0.33 | 1.04 ± 0.09 | 1.06 ± 0.27 | 1.13 ± 0.18 | 1.36 ± 0.39 | 1.12 ± 0.16 | 1.19 ± 0.33 | 1.05 ± 0.058 | 1.31 ± 0.09 | 1.07 ± 0.36 | 1.02 ± 0.23 | 1.14 ± 0.018 | 1.27 ± 0.4 | 1.34 ± 0.34 |
| HCC1395 BREAST | 1.17 ± 0.084 | 1.2 ± 0.13 | 1.32 ± 0.041 | 1.26 ± 0.053 | 1.27 ± 0.038 | 1.22 ± 0.041 | 1.25 ± 0.053 | 1.21 ± 0.037 | 1.16 ± 0.058 | 1.1 ± 0.044 | 1.16 ± 0.071 | 1.198 ± 0.0097 | 1.15 ± 0.16 | 1.18 ± 0.062 | 1.17 ± 0.13 | 1.04 ± 0.1 |
| HCC1806 BREAST | 1.08 ± 0.049 | 1.01 ± 0.16 | 1.11 ± 0.084 | 1.1 ± 0.18 | 1.11 ± 0.039 | 1.25 ± 0.09 | 1.09 ± 0.059 | 1.08 ± 0.077 | 1.05 ± 0.14 | 0.777 ± 0.044 | 1.1 ± 0.15 | 1.2 ± 0.012 | 1.17 ± 0.081 | 1.14 ± 0.14 | 1.04 ± 0.086 | 1.16 ± 0.14 |
| HCC1954 BREAST | 1.05 ± 0.12 | 1.07 ± 0.076 | 1.39 ± 0.077 | 1.27 ± 0.065 | 1.11 ± 0.033 | 0.959 ± 0.038 | 1.08 ± 0.024 | 0.859 ± 0.088 | 1.36 ± 0.11 | 1.02 ± 0.072 | 1.4 ± 0.31 | 1.52 ± 0.31 | 1.05 ± 0.15 | 0.954 ± 0.013 | 1.07 ± 0.062 | 0.836 ± 0.12 |
| HMLE3 BREAST | 1.08 ± 0.07 | 1.06 ± 0.032 | 1.08 ± 0.1 | 1.06 ± 0.025 | 1.04 ± 0.15 | 1.09 ± 0.076 | 1.1 ± 0.061 | 1.03 ± 0.17 | 1.07 ± 0.033 | 1.1 ± 0.053 | 1.11 ± 0.06 | 1.18 ± 0.092 | 1.06 ± 0.042 | 1.05 ± 0.11 | 1.02 ± 0.057 | 1.08 ± 0.13 |
| HMT3552 BREAST | 1.07 ± 0.057 | 1.07 ± 0.07 | 1.09 ± 0.026 | 1.11 ± 0.038 | 1.16 ± 0.019 | 1.18 ± 0.062 | 1.19 ± 0.078 | 1.27 ± 0.041 | 1.03 ± 0.063 | 0.996 ± 0.11 | 1.02 ± 0.032 | 1.03 ± 0.065 | 1.205 ± 0.0096 | 1.17 ± 0.059 | 1.25 ± 0.031 | 1.14 ± 0.088 |
| HOS BONE | 1 ± 0.013 | 1.028 ± 0.0093 | 1.02 ± 0.012 | 1.018 ± 0.0023 | 1.06 ± 0.028 | 1.08 ± 0.031 | 1.06 ± 0.022 | 1.024 ± 0.007 | 1.06 ± 0.013 | 1.05 ± 0.02 | 1.04 ± 0.03 | 1.04 ± 0.02 | 1.15 ± 0.05 | 1.11 ± 0.033 | 1.07 ± 0.02 | 1.068 ± 0.0086 |
| HS57T BREAST | 1.028 ± 0.0046 | 1.04 ± 0.052 | 1.06 ± 0.022 | 1.09 ± 0.08 | 1.04 ± 0.06 | 1.09 ± 0.04 | 1.02 ± 0.055 | 0.867 ± 0.021 | 1.03 ± 0.015 | 1.08 ± 0.11 | 1.09 ± 0.028 | 1.12 ± 0.029 | 1.11 ± 0.084 | 1.08 ± 0.033 | 1.07 ± 0.092 | 1.05 ± 0.054 |
| HS578T BREAST | 0.9 ± 0.013 | 0.892 ± 0.26 | 0.942 ± 0.14 | 0.942 ± 0.093 | 0.923 ± 0.12 | 1.11 ± 0.17 | 0.961 ± 0.083 | 0.969 ± 0.1 | 1.06 ± 0.25 | 1.04 ± 0.091 | 1.07 ± 0.14 | 1.12 ± 0.16 | 0.964 ± 0.055 | 1.03 ± 0.13 | 0.992 ± 0.17 | 1 ± 0.076 |
| HU09 BONE | 1 ± 0.092 | 0.961 ± 0.061 | 1.08 ± 0.027 | 1.03 ± 0.13 | 1.04 ± 0.05 | – | 0.952 ± 0.18 | 0.846 ± 0.02 | 0.977 ± 0.027 | 0.955 ± 0.056 | 1.17 ± 0.069 | 1.09 ± 0.021 | 1.09 ± 0.046 | 1.11 ± 0.13 | 1.09 ± 0.076 | 1.07 ± 0.12 |
| HUO3N1 BONE | 1.03 ± 0.04 | 0.998 ± 0.039 | 1.06 ± 0.057 | 1.08 ± 0.061 | 1.12 ± 0.017 | 1.02 ± 0.039 | 1 ± 0.023 | 0.974 ± 0.036 | 1.08 ± 0.016 | 1.06 ± 0.061 | 1.13 ± 0.065 | 1.12 ± 0.046 | 1.11 ± 0.05 | 1.09 ± 0.034 | 1.05 ± 0.016 | 0.98 ± 0.068 |
| JIMT1 BREAST | 1.04 ± 0.039 | 1.04 ± 0.023 | 1.06 ± 0.039 | 1.08 ± 0.051 | 1.04 ± 0.021 | 1.08 ± 0.015 | 1.08 ± 0.062 | 1.07 ± 0.024 | 0.97 ± 0.037 | 0.949 ± 0.027 | 0.999 ± 0.014 | 0.969 ± 0.015 | 1.09 ± 0.036 | 0.949 ± 0.06 | 1.03 ± 0.031 | 0.95 ± 0.07 |
| JURKAT HAEMATOPOIETIC AND LYMPHOID TISSUE | 1.03 ± 0.036 | 1.05 ± 0.032 | 1.03 ± 0.017 | 1.05 ± 0.029 | 0.986 ± 0.034 | 1 ± 0.03 | 1.03 ± 0.013 | 0.975 ± 0.035 | 1 ± 0.021 | 1.05 ± 0.043 | 1 ± 0.025 | 1.03 ± 0.012 | 1 ± 0.039 | 1.07 ± 0.031 | 1.01 ± 0.042 | 1.04 ± 0.019 |
| KPD BONE | 1.04 ± 0.1 | 1.01 ± 0.054 | 1.11 ± 0.065 | 1.07 ± 0.029 | 1.05 ± 0.04 | 1.07 ± 0.12 | 1.05 ± 0.012 | 0.934 ± 0.043 | 1.02 ± 0.032 | 1.07 ± 0.065 | 1.12 ± 0.033 | 1.05 ± 0.051 | 1.09 ± 0.02 | 1.1 ± 0.05 | 1.04 ± 0.084 | 1.03 ± 0.016 |
| MCF7 BREAST | 0.933 ± 0.053 | 0.922 ± 0.05 | 0.938 ± 0.013 | 0.927 ± 0.035 | 0.937 ± 0.042 | 0.942 ± 0.093 | 1 ± 0.011 | 1.01 ± 0.033 | 0.942 ± 0.053 | 0.867 ± 0.048 | 0.995 ± 0.049 | 0.898 ± 0.042 | 0.968 ± 0.05 | 0.949 ± 0.068 | 0.984 ± 0.092 | 0.892 ± 0.018 |
| MDAMB134 BREAST | 0.969 ± 0.016 | 0.898 ± 0.054 | 0.881 ± 0.084 | 0.913 ± 0.083 | 1.18 ± 0.2 | 1.18 ± 0.12 | 0.984 ± 0.095 | 0.978 ± 0.085 | 0.906 ± 0.03 | 0.837 ± 0.13 | 0.856 ± 0.18 | 0.837 ± 0.033 | 1.01 ± 0.11 | 0.969 ± 0.24 | 1.05 ± 0.033 | 0.8405 ± 0.0021 |
| MDAMB361 BREAST | 0.857 ± 0.13 | 0.895 ± 0.013 | 0.897 ± 0.12 | 0.896 ± 0.081 | 0.857 ± 0.17 | 0.89 ± 0.21 | 0.909 ± 0.091 | 0.968 ± 0.17 | 0.791 ± 0.041 | 0.821 ± 0.11 | 0.808 ± 0.043 | 0.762 ± 0.029 | 0.873 ± 0.062 | 0.754 ± 0.1 | 0.798 ± 0.046 | 0.785 ± 0.028 |
| MDAMB453 BREAST | 1.07 ± 0.076 | 1.1 ± 0.079 | 1.09 ± 0.072 | 1.18 ± 0.1 | 1.14 ± 0.021 | 1.12 ± 0.03 | 1.04 ± 0.044 | 1.09 ± 0.04 | 1.07 ± 0.068 | 1.05 ± 0.07 | 1.15 ± 0.024 | 1.1 ± 0.076 | 1.07 ± 0.018 | 1.1 ± 0.069 | 1.01 ± 0.02 | 0.993 ± 0.011 |
| MDAMB468 BREAST | 1.05 ± 0.043 | 1.05 ± 0.097 | 1.16 ± 0.054 | 1.17 ± 0.11 | 1.2 ± 0.12 | 1.19 ± 0.071 | 1.22 ± 0.046 | 1.2 ± 0.098 | 0.973 ± 0.031 | 0.96 ± 0.067 | 1.07 ± 0.032 | 0.991 ± 0.046 | 1.1 ± 0.1 | 1.02 ± 0.019 | 1.08 ± 0.063 | 0.975 ± 0.072 |
| MG63 BONE | 1.04 ± 0.045 | 1.04 ± 0.046 | 1.09 ± 0.038 | 1.08 ± 0.033 | 1.09 ± 0.039 | 1.12 ± 0.042 | 1.1 ± 0.032 | 1.06 ± 0.044 | 1.08 ± 0.043 | 1 ± 0.023 | 1.08 ± 0.031 | 1.07 ± 0.045 | 1.08 ± 0.034 | 1.076 ± 0.004 | 1.05 ± 0.055 | 1.01 ± 0.032 |
